Patent US8394442B2, “Process for the preparation of a flavoring concentrate, and a flavoring concentrate” (SYMRISE AG, priority 2007, dated 2013)
Read-outs that look alike come from different tables or passages of the source.

What was measured:
[1] = log Pow* calculated by Formula 2 from log Pow and the polarity parameter P′(x) of the ethanol/water mixture
[2] = log Pow: distribution coefficient between 1-octanol and water; settings: 1-octanol/water
[3] = solvent ethanol, proportion 10%
[4] = solvent ethanol, proportion 30%
[5] = solvent ethanol, proportion 40%
[6] = solvent ethanol, proportion 50%
[7] = solvent ethanol, proportion 60%
[8] = solvent ethanol, proportion 70%
[9] = solvent ethanol, proportion 80%
[10] = solvent ethanol, proportion 90%
[11] = solvent ethanol, proportion 100%

Row | log Pow* (P′ 4%) [1] | log Pow* (P′ 6%) [1] | log Pow* (P′ 8%) [1] | log Pow* (P′ 10%) [1] | log Pow* (P′ 30%) [1] | log Pow* (P′ 40%) [1] | log Pow [2] | SMILES | log Pow* (P′ 2%) ([1]; solvent ethanol, proportion 2%) | log Pow* (P′ 4%) ([1]; solvent ethanol, proportion 4%) | log Pow* (P′ 6%) ([1]; solvent ethanol, proportion 6%) | log Pow* (P′ 8%) ([1]; solvent ethanol, proportion 8%) | log Pow* (P′ 10%) [1, 3] | log Pow* (P′ 30%) [1, 4] | log Pow* (P′ 40%) [1, 5] | log Pow* (P′ 50%) [1, 6] | log Pow* (P′ 60%) [1, 7] | log Pow* (P′ 70%) [1, 8] | log Pow* (P′ 80%) [1, 9] | log Pow* (P′ 90%) [1, 10] | log Pow* (P′ 100%) [1, 11] | other results
1 | 3.05 | 2.99 | 2.94 | 2.89 | 2.49 | 2.34 | 3.17 | CC(C)=CCCC(C)=CC=O [Citral] |  |  |  |  |  |  |  |  |  |  |  |  |  | log Pow* (P′ 2%) [1]: 3.11; log Pow* (P′ 50%) [1]: 2.22; log Pow* (P′ 60%) [1]: 2.11; log Pow* (P′ 70%) [1]: 2.02; log Pow* (P′ 80%) [1]: 1.94; log Pow* (P′ 90%) [1]: 1.87; log Pow* (P′ 100%) [1]: 1.81
2 | 3.80 | 3.76 | 3.71 | 3.67 | 3.34 | 3.22 | 3.90 | CCCSSCCC [Dipropyldisulfide] |  |  |  |  |  |  |  |  |  |  |  |  |  | log Pow* (P′ 2%) [1]: 3.85; log Pow* (P′ 50%) [1]: 3.12; log Pow* (P′ 60%) [1]: 3.04; log Pow* (P′ 70%) [1]: 2.97; log Pow* (P′ 80%) [1]: 2.90; log Pow* (P′ 90%) [1]: 2.85; log Pow* (P′ 100%) [1]: 2.80
3 | 1.55 | 1.45 | 1.35 | 1.26 | 0.55 | 0.28 | 1.77 | CCCC(=O)OCC [Ethylbutyrate] |  |  |  |  |  |  |  |  |  |  |  |  |  | log Pow* (P′ 2%) [1]: 1.66; log Pow* (P′ 50%) [1]: 0.06; log Pow* (P′ 60%) [1]: −0.13; log Pow* (P′ 70%) [1]: −0.29; log Pow* (P′ 80%) [1]: −0.43; log Pow* (P′ 90%) [1]: −0.55; log Pow* (P′ 100%) [1]: −0.66
4 |  |  |  |  |  |  | 2.38 | CCOC(=O)C(C)CC (centres unmarked) [Ethylmethylbutyrate-2] | 2.30 | 2.22 | 2.14 | 2.07 | 2.00 | 1.47 | 1.27 | 1.11 | 0.97 | 0.85 | 0.75 | 0.65 | 0.57 | 
5 | 1.77 | 1.68 | 1.60 | 1.51 | 0.87 | 0.63 |  | CCCCCC=O [Hexanal] |  |  |  |  |  |  |  |  |  |  |  |  |  | log Pow* (P′ 50%) [1]: 0.43; log Pow* (P′ 60%) [1]: 0.27; log Pow* (P′ 70%) [1]: 0.12; log Pow* (P′ 80%) [1]: 0.00; log Pow* (P′ 90%) [1]: −0.12; log Pow* (P′ 100%) [1]: −0.21
6 | 2.69 | 2.63 | 2.57 | 2.51 | 2.06 | 1.90 |  | CCCCCCOC(C)=O [Hexylacetate] |  |  |  |  |  |  |  |  |  |  |  |  |  | log Pow* (P′ 2%) [1]: 2.76; log Pow* (P′ 50%) [1]: 1.76; log Pow* (P′ 60%) [1]: 1.64; log Pow* (P′ 70%) [1]: 1.54; log Pow* (P′ 80%) [1]: 1.46; log Pow* (P′ 90%) [1]: 1.38; log Pow* (P′ 100%) [1]: 1.31
7 |  |  |  |  |  |  | 2.47 | CC/C=C\CC1CCCC(=O)O1 (centres unmarked) [Jasmine lactone] | 2.39 | 2.31 | 2.24 | 2.17 | 2.11 | 1.59 | 1.40 | 1.25 | 1.11 | 1.00 | 0.90 | 0.81 | 0.73 | 

The next lines start with the compound.

Row | SMILES | log Pow* (P′ 4%) [1] | log Pow* (P′ 6%) [1] | log Pow* (P′ 8%) [1] | log Pow* (P′ 10%) [1] | log Pow* (P′ 30%) [1] | log Pow* (P′ 40%) [1] | log Pow [2] | log Pow* (P′ 2%) ([1]; solvent ethanol, proportion 2%) | log Pow* (P′ 4%) ([1]; solvent ethanol, proportion 4%) | log Pow* (P′ 6%) ([1]; solvent ethanol, proportion 6%) | log Pow* (P′ 8%) ([1]; solvent ethanol, proportion 8%) | log Pow* (P′ 10%) [1, 3] | log Pow* (P′ 30%) [1, 4] | log Pow* (P′ 40%) [1, 5] | log Pow* (P′ 50%) [1, 6] | log Pow* (P′ 60%) [1, 7] | log Pow* (P′ 70%) [1, 8] | log Pow* (P′ 80%) [1, 9] | log Pow* (P′ 90%) [1, 10] | log Pow* (P′ 100%) [1, 11] | other results
8 | C=Cc1ccc(O)c(OC)c1 | 2.32 | 2.25 | 2.18 | 2.12 | 1.61 | 1.42 |  |  |  |  |  |  |  |  |  |  |  |  |  |  | log Pow* (P′ 2%) [1]: 2.40; log Pow* (P′ 50%) [1]: 1.26; log Pow* (P′ 60%) [1]: 1.13; log Pow* (P′ 70%) [1]: 1.01; log Pow* (P′ 80%) [1]: 0.91; log Pow* (P′ 90%) [1]: 0.82; log Pow* (P′ 100%) [1]: 0.75
9 | CCC(C)CO (centres unmarked) [2-mebutanol, 2-methylbutanol] |  |  |  |  |  |  | 1.29 | 1.14 | 0.99 | 0.85 | 0.72 | 0.59 | −0.39 | −0.75 | −1.05 | −1.31 | −1.53 | −1.73 | −1.89 | −2.04 | 
10 | CCC/C=C/C=O [2E-hexenal] |  |  |  |  |  |  | 1.61 | 1.49 | 1.37 | 1.26 | 1.15 | 1.05 | 0.26 | −0.03 | −0.27 | −0.47 | −0.65 | −0.81 | −0.94 | −1.06 | 
11 | CCC/C=C/CO [2E-hexenol] |  |  |  |  |  |  | 1.75 | 1.64 | 1.53 | 1.43 | 1.33 | 1.24 | 0.51 | 0.24 | 0.02 | −0.17 | −0.33 | −0.47 | −0.60 | −0.71 | 
12 | CC(C)CCO [3-mebutanol, 3-methylbutanol] | 0.98 | 0.84 | 0.71 | 0.58 | −0.41 | −0.78 | 1.28 |  |  |  |  |  |  |  |  |  |  |  |  |  | log Pow* (P′ 2%) [1]: 1.12; log Pow* (P′ 50%) [1]: −1.08; log Pow* (P′ 60%) [1]: −1.34; log Pow* (P′ 70%) [1]: −1.57; log Pow* (P′ 80%) [1]: −1.76; log Pow* (P′ 90%) [1]: −1.93; log Pow* (P′ 100%) [1]: −2.08
13 | O=Cc1ccccc1 [Benzaldehyde] |  |  |  |  |  |  |  | 1.52 | 1.40 | 1.30 | 1.19 | 1.09 | 0.32 | 0.03 | −0.20 | −0.41 | −0.58 | −0.73 | −0.86 | −0.98 | 
14 | CCCCOC(C)=O [Butylacetate] |  |  |  |  |  |  | 1.77 | 1.66 | 1.55 | 1.45 | 1.35 | 1.26 | 0.55 | 0.28 | 0.06 | −0.13 | −0.29 | −0.43 | −0.55 | −0.66 | 
15 | CC(=O)C(C)=O [Diacetyl] |  |  |  |  |  |  | −1.33 | −1.48 | −1.62 | −1.76 | −1.88 | −2.00 | −2.96 | −3.31 | −3.60 | −3.85 | −4.07 | −4.25 | −4.42 | −4.56 | 
16 | O=Cc1ccco1 [Furfural] |  |  |  |  |  |  |  | 0.46 | 0.20 | −0.04 | −0.28 | −0.50 | −2.24 | −2.88 | −3.41 | −3.87 | −4.26 | −4.60 | −4.90 | −5.16 | 
17 | OCc1ccco1 [Furfuryl alcohol] |  |  |  |  |  |  |  | −0.43 | −1.10 | −1.74 | −2.35 | −2.92 | −7.46 | −9.13 | −10.52 | −11.71 | −12.73 | −13.61 | −14.39 | −15.08 | 
18 | SCc1ccco1 [Furfurylthiol-2] |  |  |  |  |  |  | 1.90 | 1.80 | 1.70 | 1.60 | 1.51 | 1.43 | 0.76 | 0.51 | 0.31 | 0.13 | −0.02 | −0.15 | −0.26 | −0.36 | 
19 | c1ccc2[nH]ccc2c1 [Indole] |  |  |  |  |  |  | 2.14 | 2.05 | 1.96 | 1.88 | 1.80 | 1.72 | 1.13 | 0.91 | 0.73 | 0.57 | 0.44 | 0.32 | 0.22 | 0.13 | 
20 | Oc1ccccc1 [Phenol] |  |  |  |  |  |  |  | 1.35 | 1.22 | 1.10 | 0.98 | 0.87 | 0.02 | −0.30 | −0.56 | −0.79 | −0.98 | −1.15 | −1.30 | −1.43 | 
